Where two headings read alike, the source gives them in different places. Values belong to the compound of their own block, whether it stands above or below them.
Assays:
[1] = Plasma pharmacokinetics after single I.P./I.V. dose in male BALB/c mice (LC-MS/MS); settings: for AUC(0-inf): AUC0-inf; for AUC(0-t): AUC0-t; for Vd: VdSS; for clearance: CL; for k el: Kel
Description: After dosing, blood samples were collected at different time points for each group. […] Three animals were used for each time point. Approximately 800 μL of blood was collected via orbital vein (a source of collecting sufficient volume of venous blood) from each anesthetized mouse by isoflurane, and 200 μL of blood was collected from the cannula implanted in the jugular vein. The catheter was implanted when the blood sample was collected at the first time point. Next, the blood was transferred to a prepared tube containing sodium heparin anticoagulant and mixed briefly by gentle inversion three to four times. The target and actual time of blood sampling were recorded relative to the time of dosing. Samples were placed on wet ice immediately after collection. Within 1 hour after collection, plasma was separated by centrifugation at 4,000 rpm for 10 minutes at 4 °C. The plasma was protected from light and stored at −80 °C until analyzed by liquid chromatography-mass spectrometry/mass spectrometry (LC-MS/MS) for quantification.
Using the data from the standards, calibration curves were generated for each analytical batch. Aliquots of 10.0 μL of samples, calibraton curve samples, and QC samples were supplemented with 100 μL of precipitant (a mixture of acetone and acetonitrile (30:70)). After vortexing for 3 min and centrifuging at 12,000 rpm for 3 min, 75.00 μL of the supernatant was transferred into a 96-well microplate with an equal volume of water. The 10 μL mixture solution was injected for LC-MS/MS analysis.
Data collection was performed using Analyst version 1.4 from Applied Biosystems. […] The data were also analyzed using Prism 5.0 software. Statistical significance was determined using independent two-tailed Student t-tests and one-way ANOVA for independent data. Differences of P < 0.05 were regarded as significant for all statistical analyses.

[2] = male, Sprague-Dawley, rat, in vivo, iv
[3] = in vivo; settings: male, Sprague-Dawley, rat, iv; for AUC(0-inf): AUC0-inf; for AUC(0-t): AUC0-t
[4] = Plasma pharmacokinetics after single I.P./I.V. dose in male Sprague-Dawley rats (LC-MS/MS); settings: for MRTIV / clearance / k el: SD rats; for clearance / k el / half-life: male, Sprague-Dawley, rat, plasma, iv, 1 mg/kg; for clearance: CL; for k el: Kel; for half-life: t1/2, SD rats
[5] = biological target: T1, CYP2C19 (Homo sapiens, UniProt P33261); experiment: HLM-LC-MS CYP450 inhibition assay, CYP2C19; assay type: in vitro ADME; settings: substrate S-mephenytoin 35 μM, 4-hydroxylation, read-out: Compound IC50
T1 construct: from tissue; host or cells: human liver microsomes
T1 sequence (P33261 whole entry): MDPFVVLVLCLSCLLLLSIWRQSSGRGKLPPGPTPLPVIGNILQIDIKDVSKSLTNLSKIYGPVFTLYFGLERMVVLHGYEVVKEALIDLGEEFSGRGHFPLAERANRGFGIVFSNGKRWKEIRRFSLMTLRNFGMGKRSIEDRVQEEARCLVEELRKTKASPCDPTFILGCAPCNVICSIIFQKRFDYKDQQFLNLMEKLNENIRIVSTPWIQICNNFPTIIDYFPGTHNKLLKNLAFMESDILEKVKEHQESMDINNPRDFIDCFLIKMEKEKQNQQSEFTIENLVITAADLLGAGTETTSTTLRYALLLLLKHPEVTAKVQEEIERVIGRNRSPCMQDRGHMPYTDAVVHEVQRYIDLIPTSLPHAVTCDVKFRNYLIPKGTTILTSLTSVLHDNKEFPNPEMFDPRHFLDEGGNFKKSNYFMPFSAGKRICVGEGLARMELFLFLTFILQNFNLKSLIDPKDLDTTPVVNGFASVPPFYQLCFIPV
Description: (§1) Compounds were tested in triplicate.

[6] = biological target: T2, CYP2B6 (Homo sapiens, UniProt P20813); experiment: HLM-LC-MS CYP450 inhibition assay, CYP2B6; assay type: in vitro ADME; settings: substrate bupropion 70 μM, hydroxylation, read-out: Compound IC50
T2 construct: from tissue; host or cells: human liver microsomes
T2 sequence (P20813 1-491): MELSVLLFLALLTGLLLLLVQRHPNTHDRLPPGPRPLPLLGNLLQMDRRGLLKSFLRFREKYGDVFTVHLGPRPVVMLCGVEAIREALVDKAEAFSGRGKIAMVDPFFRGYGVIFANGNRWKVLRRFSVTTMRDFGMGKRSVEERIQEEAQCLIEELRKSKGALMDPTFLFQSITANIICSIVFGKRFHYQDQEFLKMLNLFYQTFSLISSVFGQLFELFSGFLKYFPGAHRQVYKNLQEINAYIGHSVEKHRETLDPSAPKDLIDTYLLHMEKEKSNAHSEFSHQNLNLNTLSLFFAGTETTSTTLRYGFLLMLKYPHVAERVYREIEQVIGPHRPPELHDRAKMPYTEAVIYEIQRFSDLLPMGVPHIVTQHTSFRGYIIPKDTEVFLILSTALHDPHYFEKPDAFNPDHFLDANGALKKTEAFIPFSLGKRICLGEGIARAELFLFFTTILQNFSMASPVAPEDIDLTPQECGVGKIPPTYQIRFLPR
Description: as §1

[7] = male, BALB/c, mouse, in vivo, iv, 2 mg/kg
[8] = male, BALB/c, mouse, plasma, iv, 2 mg/kg, BALB/c mice, doxorubicin I.V. 2.00 mg/kg alone
[9] = male, BALB/c, mouse, plasma, iv, 2 mg/kg, BALB/c mice, doxorubicin I.V. 2.00 mg/kg combined with NSC23925b 2.50 mg/kg
[10] = doxorubicin I.V. 1.00 mg/kg alone
[11] = doxorubicin I.V. 1.00 mg/kg combined with NSC23925b 2.50 mg/kg
[12] = male, BALB/c, mouse, in vivo, iv, 5 mg/kg

- MRTIV ([1]; BALB/c mice, doxorubicin I.V. 2.00 mg/kg alone): 14.6 ± 5.71 h
- MRTIV ([1]; BALB/c mice, doxorubicin I.V. 2.00 mg/kg combined with NSC23925b 2.50 mg/kg): 17.3 ± 4.17 h
- AUMC0-inf [1, 7]: 4157 ± 2493 h·h·ng·mL^−1
- AUMC0-t [1, 7]: 1470 ± 309 h·h·ng·mL^−1
- AUC(0-inf) [1, 7]: 272 ± 53.7 ng·h/mL
- AUC(0-t) [1, 7]: 207 ± 9.76 ng·h/mL
- Vd [1, 7]: 105 ± 19.8 L/kg
- clearance [1, 8]: 126 ± 22.4 mL/min/kg
- clearance [1, 9]: 155 ± 19.2 mL/min/kg
- k el [1, 8]: 1.89e-05 s⁻¹
- k el [1, 9]: 1.52e-05 s⁻¹
- half-life ([1]; male, BALB/c, mouse, plasma, iv, 2 mg/kg, t1/2, BALB/c mice, doxorubicin I.V. 2.00 mg/kg alone): 10.7 ± 3.29 h
- half-life ([1]; male, BALB/c, mouse, plasma, iv, 2 mg/kg, t1/2, BALB/c mice, doxorubicin I.V. 2.00 mg/kg combined with NSC23925b 2.50 mg/kg): 12.8 ± 1.91 h
- AUMC0-t ([2]; 1 mg/kg): 446 ± 282 h·h·ng·mL^−1
- AUC(0-inf) ([3]; 1 mg/kg): 117 ± 32.5 ng·h/mL
- AUC(0-t) ([3]; 1 mg/kg): 89.7 ± 35.6 ng·h/mL
- Vd ([3]; 1 mg/kg, VdSS): 97.1 ± 19.5 L/kg
- MRTIV [4, 10]: 11.1 ± 2.41 h
- MRTIV [4, 11]: 16.1 ± 0.771 h
- clearance [4, 10]: 151 ± 43.1 mL/min/kg
- clearance [4, 11]: 120 ± 7.57 mL/min/kg
- k el [4, 10]: 1.93e-05 s⁻¹
- k el [4, 11]: 1.35e-05 s⁻¹
- half-life [4, 10]: 10.5 ± 2.76 h
- half-life [4, 11]: 14.3 ± 0.87 h
SMILES: COc1cccc2c1C(=O)c1c(O)c3c(c(O)c1C2=O)C[C@@](O)(C(=O)CO)C[C@@H]3O[C@H]1C[C@H](N)[C@H](O)[C@H](C)O1 [Doxorubicin, reference compound]

- IC50 [5]: 4080 nM
SMILES: COc1ccc2[nH]c([S+]([O-])Cc3ncc(C)c(OC)c3C)nc2c1 (centres unmarked) [Omeprazole, reference compound]

SMILES: COC(=O)[C@H](c1ccccc1Cl)N1CCc2sccc2C1 [Clopidogrel, reference compound]
- IC50 [6]: 914 nM

- AUMC0-inf [1, 12]: 2911 ± 400 h·h·ng·mL^−1
- AUMC0-t [1, 12]: 2728 ± 356 h·h·ng·mL^−1
- MRTIV [1, 12]: 1.16 ± 0.147 h
- AUC(0-inf) [1, 12]: 2520 ± 244 ng·h/mL
- AUC(0-t) [1, 12]: 2500 ± 238 ng·h/mL
- clearance [1, 12]: 33.2 ± 3.12 mL/min/kg
- k el [1, 12]: 0.000149 s⁻¹
- Vd [1, 12]: 2.31 ± 0.428 L/kg
- half-life ([1]; male, BALB/c, mouse, in vivo, iv, 5 mg/kg, t1/2): 1.33 ± 0.28 h
- AUMC0-inf ([2]; 5 mg/kg): 29892 ± 4245 h·h·ng·mL^−1
- AUMC0-t ([2]; 5 mg/kg): 13231 ± 1265 h·h·ng·mL^−1
- Kel ([2]; 5 mg/kg): 0.0602 ± 0.0042 h⁻¹
- MRTIV ([2]; 5 mg/kg): 6.50 ± 0.853 h
- VdSS ([2]; 5 mg/kg): 7.13 ± 1.34 L/kg
- AUC(0-inf) ([3]; 5 mg/kg): 4610 ± 517 ng·h/mL
- AUC(0-t) ([3]; 5 mg/kg): 4200 ± 492 ng·h/mL
- clearance ([3]; 5 mg/kg, CL): 18.2 ± 1.93 mL/min/kg
SMILES: CC(=O)O[C@H]1C(=O)[C@@]2(C)[C@H]([C@H](OC(=O)c3ccccc3)[C@]3(O)C[C@H](OC(=O)[C@H](O)[C@@H](NC(=O)c4ccccc4)c4ccccc4)C(C)=C1C3(C)C)[C@]1(OC(C)=O)CO[C@@H]1C[C@@H]2O [Paclitaxel, reference compound]

From PMC4860631, “Pharmacokinetics and tolerability of NSC23925b, a novel P-glycoprotein inhibitor: preclinical study in mice and rats” (Scientific Reports, 2016)
